Laboratory results as given in patent publication US9375013B2, “Herbicidal composition” (ISHIHARA SANGYO KAISHA, LTD., priority 2013, dated 2016).

Columns and labels:
Type in all cases: in vivo
[1] = tested on: field bindweed (Convolvulus arvensis L.); test: Test Example 5: pot soil treatment, growth inhibition of field bindweed; conditions: dose 30 g/ha, 22nd day after treatment, read-out: Growth inhibition rate (%) of field bindweed, Measured value
Excerpt: (§1) On the 14th day after treatment, the state of growth of the summergrass was visually observed to determine the growth inhibition rate in accordance with the following evaluation standard. The growth inhibition rate (%) (measured value) and the growth inhibition rate (%) (calculated value) calculated by the Colby's formula are shown in Table 1. Growth inhibition rate (%)=0 (equivalent to the non-treated area) to 100 (complete kill) Upland field soil was put into a 1/160,000 ha pot, and seeds of field bindweed (Convolvulus arvensis L.) were sown. On the next day, predetermined amounts of flazasulfuron and hexazinone were diluted with water (in an amount corresponding to 300 L/ha), and applied for soil treatment by a small sprayer. On the 22nd day after treatment, the state of growth of the field bindweed was visually observed to determine the growth inhibition rate. The growth inhibition rate (%) (measured value) and the growth inhibition rate (%) calculated in the same manner as in Test Example 1 are shown in Table 5.

[2] = tested on: barnyardgrass (Echinochloa crus-galli L); test: Test Example 9: pot soil treatment, growth inhibition of barnyardgrass; conditions: dose 30 g/ha, 21st day after treatment, read-out: Growth inhibition rate (%) of barnyardgrass, Measured value
Excerpt: as §1, with “barnyardgrass (Echinochloa crus-galli L)” for “field bindweed (Convolvulus arvensis L.)”, “21st” for “22nd”, “barnyardgrass” for “field bindweed”, “9.” for “5.”

[3] = tested on: field bindweed (Convolvulus arvensis L.); test: Test Example 15: pot soil treatment, growth inhibition of field bindweed; conditions: dose 30 g/ha, 21st day after treatment, read-out: Growth inhibition rate (%) of field bindweed, Measured value
Excerpt: as §1, with “flazasulfuron, mesotrione” for “flazasulfuron”, “imazapic” for “hexazinone”, “21st” for “22nd”, “15.” for “5.”

[4] = tested on: ivy-leaved morningglory (Ipomoea hederacea (L.) Jacq.); test: Test Example 2: pot soil treatment, growth inhibition of ivy-leaved morningglory; conditions: 22nd day after treatment, read-out: Growth inhibition rate (%) of ivy-leaved morningglory, Measured value
Excerpt: as §1, with “ivy-leaved morningglory (Ipomoea hederacea (L.) Jacq.)” for “field bindweed (Convolvulus arvensis L.)”, “ivy-leaved morningglory” for “field bindweed”, “2.” for “5.”

[5] = tested on: wild oat (Avena fatua L.); test: Test Example 3: pot soil treatment, growth inhibition of wild oat; conditions: 22nd day after treatment, read-out: Growth inhibition rate (%) of wild oat, Measured value
Excerpt: as §1, with “wild oat (Avena fatua” for “field bindweed (Convolvulus arvensis”, “flazasulfuron, mesotrione” for “flazasulfuron”, “imazapic” for “hexazinone”, “wild oat” for “field bindweed”, “3.” for “5.”

[6] = tested on: shattercane (Sorghum bicolor (L.) Moench.); test: Test Example 6: pot soil treatment, growth inhibition of shattercane; conditions: dose 30 g/ha, 22nd day after treatment, read-out: Growth inhibition rate (%) of shattercane, Measured value
Excerpt: On the 14th day after treatment, the state of growth of the summergrass was visually observed to determine the growth inhibition rate in accordance with the following evaluation standard. The growth inhibition rate (%) (measured value) and the growth inhibition rate (%) (calculated value) calculated by the Colby's formula are shown in Table 1. Growth inhibition rate (%)=0 (equivalent to the non-treated area) to 100 (complete kill)
Upland field soil was put into a 1/160,000 ha pot, and seeds of shattercane (Sorghum bicolor (L.) Moench.) were sown. On the next day, predetermined amounts of flazasulfuron and hexazinone were diluted with water (in an amount corresponding to 300 L/ha), and applied for soil treatment by a small sprayer.
On the 22nd day after treatment, the state of growth of the shattercane was visually observed to determine the growth inhibition rate. The growth inhibition rate (%) (measured value) and the growth inhibition rate (%) calculated in the same manner as in Test Example 1 are shown in Table 6.

**Q.** With COc1cc(OC)nc(NC(=O)NS(=O)(=O)c2ncccc2C(F)(F)F)n1 [Flazasulfuron, flazasulfuron] as the compound, how does the inhibition at 30 g/ha [1] read?
**A.** 0%

**Q.** And the inhibition at 30 g/ha [2]?
**A.** 90%

**Q.** And the inhibition at 30 g/ha [3]?
**A.** 0%

**Q.** What about the inhibition at 10 g/ha ([4]; dose 10 g/ha) of the same compound?
**A.** 0%

**Q.** And the inhibition at 30 g/ha ([4]; dose 30 g/ha)?
**A.** 0%

**Q.** And the inhibition at 50 g/ha ([4]; dose 50 g/ha)?
**A.** 40%

**Q.** What about the inhibition at 30 g/ha ([5]; dose 30 g/ha) of the same compound?
**A.** 40%

**Q.** What about the inhibition at 50 g/ha ([5]; dose 50 g/ha) of the same compound?
**A.** 0%

**Q.** And the inhibition at 30 g/ha [6]?
**A.** 60%
